Measured values reported in paper PMC11871066, “Structure-based discovery of hydrocarbon-stapled paxillin peptides that block FAK scaffolding in cancer” (Nature Communications, 2025).

Assay: Liver microsomal stability
Settings: human liver microsomes

CCCCCCCCCCCCCC(=O)N[C@@H](CC(N)=O)C(=O)N[C@@H](CC(C)C)C(=O)N[C@]1(C)CCCCCCC=CCCC[C@@](C)(C(=O)N[C@@H](CCC(=O)O)C(=O)N[C@@H](CC(C)C)C(=O)N[C@@H](CC(N)=O)C(N)=O)NC(=O)[C@H](CC(C)C)NC(=O)[C@H](CC(C)C)NC(=O)[C@H](CCCNC(=N)N)NC(=O)[C@H](CC(=O)O)NC(=O)[C@H](CC(C)C)NC(=O)[C@H](CCC(=O)O)NC1=O [compound 2012]
remaining in liver microsomes (0 min, Rep1): 98 | remaining in liver microsomes (0 min, Rep2): 102 | remaining in liver microsomes (5 min, Rep1): 98 | remaining in liver microsomes (5 min, Rep2): 94 | remaining in liver microsomes (15 min, Rep1): 100 | remaining in liver microsomes (15 min, Rep2): 98 | remaining in liver microsomes (30 min, Rep1): 100 | remaining in liver microsomes (30 min, Rep2): 101 | remaining in liver microsomes (60 min, Rep1): 97 | remaining in liver microsomes (60 min, Rep2): 94
